target: T1, glutathione S-transferase (GST)-fused full-length human Syk protein (Homo sapiens, UniProt P43405); test: Syk enzyme assay; assay type: biochemical; details: Syk enzyme assay, Test Example 1; read-out: IC50 of Syk-inhibitory activity
T1 construct: (GST)-fused full-length human Syk protein; GST (glutathione S-transferase); purchased Carna Biosciences
Procedure: A glutathione S-transferase (GST)-fused full-length human Syk protein (Carna Biosciences), which had been generated using a Baculovirus expression system, was used in the Syk enzyme assay.
15 μl of a reaction solution (1.2 ng Syk, 20 mM HEPES, 10 mM MgCl2, 50 mM NaCl, 2 mM DTT, 0.05% BSA, pH 7.0) containing a Syk protein and a predetermined concentration of a test compound was shaken for 2 minutes, and it was then left at rest at room temperature for 13 minutes. Thereafter, 5 μl of Biotin-EDPDYEWPSA-NH2 (final concentration: 0.4 μM) serving as a substrate peptide and 5 μl of ATP (final concentration: 27 μM) were added to the reaction solution, and the obtained mixture was then shaken for 2 minutes. The reaction solution was further left at rest at room temperature for 40 minutes, so as to carry out an enzyme reaction.
Thereafter, 50 μl of a reaction termination solution [5 μg/ml Streptavidin, 0.18 μg/ml PT66-K, 30 mM HEPES (pH 7.0), 150 mM KF, 75 mM EDTA, 0.15% BSA, 0.075% Tween20], which contained Streptavidin-Xlent (Cisbio) and Mab PT66-K (Cisbio), was added to the reaction solution to terminate the enzyme reaction. At the same time, the reaction solution was left at rest at room temperature for 1 hour, so as to carry out an antigen-antibody reaction. Thereafter, using EnVision (PerkinElmer), the time-resolved fluorescence was measured at 615 nm and 665 nm, so that the phosphorylation of the substrate peptide was measured.
In addition, the following are standards for evaluating IC50 of Syk-inhibitory activity used in Table 21. • A: Up to 10 nM • B: 10 to 50 nM • C: 50 to 100 nM • D: 100 to 1000 nM The set of numbers (XYZ-xyz) given in each Example number column indicates the corresponding Example number (Example XYZ-xyz) in Table 21.

IC50 [nM] | Compound
< 10 | NC(=O)c1cc(F)c(N[C@H](c2ccccc2)[C@@H](N)c2ccccc2)nc1Nc1ccc2ncccc2c1 (racemic) [Example 006-135, 6-(((1R,2S)-2-amino-1,2-diphenylethyl)amino)-5-fluoro-2-(quinolin-6-ylamino)nicotinamide 6-(((1S,2R)-2-amino-1,2-diphenylethyl)amino)-5-fluoro-2-(quinolin-6-ylamino)nicotinamide]
< 10 | Cn1ncc2cc(Nc3nc(N[C@H](c4ccccc4)[C@@H](N)c4ccccc4)c(F)cc3C(N)=O)ccc21 (racemic) [Example 006-136, 6-(((1R,2S)-2-amino-1,2-diphenylethyl)amino)-5-fluoro-2-((1-methyl-1H-indazol-5-yl)amino)nicotinamide 6-(((1S,2R)-2-amino-1,2-diphenylethyl)amino)-5-fluoro-2-((1-methyl-1H-indazol-5-yl)amino)nicotinamide]
< 10 | COCCOc1ccc2cc(Nc3nc(N[C@H](C)[C@H](C)N)c(F)cc3C(N)=O)cnc2c1 (racemic) [Example 006-183, 6-(((2R,3S)-3-aminobutan-2-yl)amino)-5-fluoro-2-((7-(2-methoxyethoxy)quinolin-3-yl)amino)nicotinamide 6-(((2S,3R)-3-aminobutan-2-yl)amino)-5-fluoro-2-((7-(2-methoxyethoxy)quinolin-3-yl)amino)nicotinamide]
10 to 50 | C[C@H](N)[C@@H](C)Nc1nc(Nc2ccnc(-n3nccn3)c2)c(C(N)=O)cc1F (racemic) [Example 006-189, 2-((2-(2H-1,2,3-triazol-2-yl)pyridin-4-yl)amino)-6-(((2R,3S)-3-aminobutan-2-yl)amino)-5-fluoronicotinamide 2-((2-(2H-1,2,3-triazol-2-yl)pyridin-4-yl)amino)-6-(((2S,3R)-3-aminobutan-2-yl)amino)-5-fluoronicotinamide]

More lines, now with the values behind:

Compound | IC50 [nM]
COc1cc(Nc2nc(N[C@H](c3ccccc3)[C@@H](N)c3ccccc3)c(F)cc2C(N)=O)cc(OC)c1 (racemic) [Example 006-137, 6-(((1R,2S)-2-amino-1,2-diphenylethyl)amino)-2-((3,5-dimethoxyphenyl)amino)-5-fluoronicotinamide 6-(((1S,2R)-2-amino-1,2-diphenylethyl)amino)-2-((3,5-dimethoxyphenyl)amino)-5-fluoronicotinamide] | 10 to 50
NC(=O)c1cc(F)c(N[C@H](c2ccccc2)[C@@H](N)c2ccccc2)nc1Nc1cccc(-n2nccn2)c1 (racemic) [Example 006-138, 2-((3-(2H-1,2,3-triazol-2-yl)phenyl)amino)-6-(((1R,2S)-2-amino-1,2-diphenylethyl)amino)-5-fluoronicotinamide 2-((3-(2H-1,2,3-triazol-2-yl)phenyl)amino)-6-(((1S,2R)-2-amino-1,2-diphenylethyl)amino)-5-fluoronicotinamide] | 10 to 50
Cc1cncc(Nc2nc(N[C@H](c3ccccc3)[C@@H](N)c3ccccc3)c(F)cc2C(N)=O)c1 (racemic) [Example 006-140, 6-(((1R,2S)-2-amino-1,2-diphenylethyl)amino)-5-fluoro-2-((5-methylpyridin-3-yl)amino)nicotinamide 6-(((1S,2R)-2-amino-1,2-diphenylethyl)amino)-5-fluoro-2-((5-methylpyridin-3-yl)amino)nicotinamide] | 50 to 100
NC(=O)c1cc(F)c(N[C@H](c2ccccc2)[C@@H](N)c2ccccc2)nc1Nc1ccc2cccnc2c1 (racemic) [Example 006-141, 6-(((1R,2S)-2-amino-1,2-diphenylethyl)amino)-5-fluoro-2-(quinolin-7-ylamino)nicotinamide 6-(((1S,2R)-2-amino-1,2-diphenylethyl)amino)-5-fluoro-2-(quinolin-7-ylamino)nicotinamide] | 100 to 1000
